According to patent publication US8618088B2, “Methods of inhibiting choroidal neovascularization” (University of Pennsylvania, priority 2002, dated 2013):

Legend:
Solubility in water = format: physicochemical
[1] = test system: choroidal neovascularization (CNV); test: Matrigel subretinal injection model of choroidal neovascularization (CNV), Vessel Paint staining and fluorescence microscopy; format: in vivo, Sprague-Dawley rats
Method: In search of effective treatments for CNV, a simple animal model was created by injecting 2-3µl Matrigel™ to the subretinal space of adult Sprague-Dawley rats using a 33-gauge needle connected to a 10µl Hamilton microsyringe. A week or more later the animals were sacrificed by CO2 inhalation and perfused with Vessel Paint, a new visualization technique recently developed in the inventors' lab that enables screening agents, including chemical compounds and proteins, for their potential in inhibiting CNV (Wen, ARVO Abstract, March 2002). Vessel Painting comprises the use of a solution containing DiI, followed by 4% paraformaldehyde solution, and is discussed further below.
The anterior portion of the eye, including the cornea and lens, was removed, and the eyecup was imbedded in 5% agarose. […] Eye sections were examined by fluorescence microscopy for neovascularization in the Matrigel™ deposit. […] Protein leakage of the new vessels was detected by assessing color change in the Matrigel™ deposit after intravenous injection of Evan's Blue dye. […]
Adult Sprague-Dawley rats (n=22) were injected with Matrigel™ to the subretinal space. […] Tissue sections were examined by fluorescence microscopy. […]
Eyes were collected 10 days after injection and blood vessels were stained with Vessel Paint. […] CNV was examined by fluorescence microscopy and CNV index of each eye was calculated.

Row | SMILES | solubility in water (Solubility in water) | effect on the normal vasculature of the eye ([1]; all experiments) | CNV index (mean) ([1]; suspension in Matrigel 10 μg/μl, 1.2 μl subretinal, 10 days after injection)
1 | CO[C@H]1C[C@@H]2CC[C@@H](C)[C@@](O)(O2)C(=O)C(=O)N2CCCC[C@H]2C(=O)O[C@H]([C@H](C)C[C@@H]2CC[C@@H](O)[C@H](OC)C2)CC(=O)[C@H](C)/C=C(\C)[C@@H](O)[C@@H](OC)C(=O)[C@H](C)C[C@H](C)/C=C/C=C/C=C/1C [rapamycin] | not soluble in water | no discernable effect | 
2 | C=CC[C@@H]1/C=C(\C)C[C@H](C)C[C@H](OC)[C@H]2O[C@@](O)(C(=O)C(=O)N3CCCC[C@H]3C(=O)O[C@H](/C(C)=C/[C@@H]3CC[C@@H](O)[C@H](OC)C3)[C@H](C)[C@@H](O)CC1=O)[C@H](C)C[C@@H]2OC [FK506] | not water soluble |  | Mean = 12.67 (n = 6)
